We go through three compounds from US8067470B2, “Linoleic acid preparations for the topical treatment of male and female pattern androgenetic alopecia, age-related alopecia, and keratosis pilaris” (priority 2008, dated 2011).

For assay [1], the system named is male pattern AGA. To be noted: cited from earlier work.
In assay [2] the test system is balding scalp. Briefly: observation of balding scalp in a person treated with 13-cis-retinoic acid for cystic acne. It counts as in vivo, human. To be noted: person treated for five months for cystic acne. From the text:
Linoleic acid has been proven in vitro to prevent growth of P. acnes in culture at concentrations similar to the normal level found in follicles not influenced by DHT stimulation of oil production. […] 8 Leyden, James J. M D et al., “Qualitative and Quantitative Changes in Cutaneous Bacteria Associated with Systemic Isotretinoin Therapy for Acne Conglobata”, Journal of Investigative Dermatology, Vol. 86, 390-393, 1986.

For assay [3], the system named is P. acnes. To be noted: parallel to reduction of sebaceous gland oil production; cited from earlier work.
Assay [4] concerns P. acnes. To be noted: prior art of this inventor; cited from earlier work.
For assay [5], the system named is keratosis pilaris. In words: topical linoleic acid oil in patients with keratosis pilaris. It counts as in vivo, human. The following applies: in the form of an oil, more than 20 patients. From the text:
In pre-pubertal children prior to hormonal stimulation of facial oil production, it can be seen transiently on the cheeks, typically the least oily part of the face. […] The histology is reminiscent of the intra-follicular hyperkeratosis and low-level microinflammation seen in AGA follicles, except that AGA scalp follicles are larger and have large sebaceous glands opening into them. It is likely that localized linoleic acid deficiency with resultant aberrations in keratinization and in inflammation, due to permissive changes in microflora such as P. acnes and yeasts, is its etiology. Topical linoleic acid preparations would therefore be a logical approach to the treatment of the condition.

SMILES strings stand for the structures. Bounds are passed on as bounds.

With `CC(C)(C)NC(=O)[C@H]1CC[C@H]2[C@@H]3CC[C@H]4NC(=O)C=C[C@]4(C)[C@H]3CC[C@]12C` [finasteride], the “recipients who lost less scalp hair” value in assay [1] (after one month, oral) is recorded as 95%. For the same compound, the “recipients who began regrowing lost hairs” value in assay [1] (after six months, oral) is on record as 67%. In addition, the “balding recipients showing poor or no response” value in assay [1] (in vivo) is listed as no less than 35%.
For the compound `CC1=C(/C=C/C(C)=C/C=C/C(C)=C\C(=O)O)C(C)(C)CCC1` [13-cis-retinoic acid], the “terminal (full sized) hair growth in balding scalp” value in assay [2] was “increased terminal (full sized) hair growth”. Besides, the “P. acnes counts in acne-prone skin” value in assay [3] is “parallel and equal reduction in P. acnes counts”.
Regarding `CCCCC/C=C\C/C=C\CCCCCCCC(=O)O` [linoleic acid], the “concentration required to completely inhibit growth of P. acnes in culture” value in assay [4] is given as 2%. Further, the “roughness and redness of clinical keratosis pilaris” value in assay [5] is “amelioration of both the roughness and redness”.
